ChEMBL document CHEMBL6182835, “Distinctive roles of aquaporins and novel therapeutic opportunities against cancer” (RSC Med Chem, 2025)
Each block holds one compound with its values, some of them ahead of it.

What was measured:
[1] = target: T1, Aquaporin-4 (Homo sapiens, UniProt P55087); test: Inhibition of AQP4-M23 (unknown origin) relative to control; conditions: concentration not given here
[2] = target: T2, Aquaporin-1 (Homo sapiens) (UniProt P29972); test: Inhibition of AQP1 (unknown origin) at 20 uM relative to control
T2 sequence (whole entry): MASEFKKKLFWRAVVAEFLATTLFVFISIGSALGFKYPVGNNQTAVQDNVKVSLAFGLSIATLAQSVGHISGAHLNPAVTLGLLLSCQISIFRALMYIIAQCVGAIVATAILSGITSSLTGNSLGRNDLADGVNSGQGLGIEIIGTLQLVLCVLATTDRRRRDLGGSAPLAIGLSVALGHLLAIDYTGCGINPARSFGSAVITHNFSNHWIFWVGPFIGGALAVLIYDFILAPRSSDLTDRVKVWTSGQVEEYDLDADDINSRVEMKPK

[3] = target: T1, Aquaporin-4; test: Inhibition of AQP4-M23 (unknown origin)
[4] = target: T3, Aquaporin-3 (Mus musculus, UniProt Q8R2N1); test: Inhibition of mouse AQP3
T3 sequence (Q8R2N1 whole entry): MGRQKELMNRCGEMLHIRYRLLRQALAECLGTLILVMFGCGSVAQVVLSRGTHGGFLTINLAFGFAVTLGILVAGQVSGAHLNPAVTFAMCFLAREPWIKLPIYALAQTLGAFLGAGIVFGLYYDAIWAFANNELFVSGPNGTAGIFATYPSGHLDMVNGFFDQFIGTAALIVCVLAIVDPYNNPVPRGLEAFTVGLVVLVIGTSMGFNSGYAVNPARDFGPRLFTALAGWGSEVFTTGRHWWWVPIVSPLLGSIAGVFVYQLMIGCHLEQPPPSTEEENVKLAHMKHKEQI

[5] = target: T4, Aquaporin-3 (Homo sapiens, UniProt Q92482); test: Inhibition of human AQP3 expressed in CHO cells; format: cell-based
T4 sequence (Q92482 whole entry): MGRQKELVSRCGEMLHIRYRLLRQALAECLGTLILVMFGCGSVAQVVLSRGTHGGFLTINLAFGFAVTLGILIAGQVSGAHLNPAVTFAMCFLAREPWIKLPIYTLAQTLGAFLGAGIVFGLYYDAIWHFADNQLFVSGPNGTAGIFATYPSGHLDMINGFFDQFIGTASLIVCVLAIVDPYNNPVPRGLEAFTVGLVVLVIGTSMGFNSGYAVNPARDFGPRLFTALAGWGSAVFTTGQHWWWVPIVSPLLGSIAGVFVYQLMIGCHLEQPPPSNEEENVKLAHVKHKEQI

[6] = target: T5, Aquaporin-9 (Mus musculus, UniProt Q9JJJ3); test: Inhibition of mouse AQP9
T5 sequence (Q9JJJ3 whole entry): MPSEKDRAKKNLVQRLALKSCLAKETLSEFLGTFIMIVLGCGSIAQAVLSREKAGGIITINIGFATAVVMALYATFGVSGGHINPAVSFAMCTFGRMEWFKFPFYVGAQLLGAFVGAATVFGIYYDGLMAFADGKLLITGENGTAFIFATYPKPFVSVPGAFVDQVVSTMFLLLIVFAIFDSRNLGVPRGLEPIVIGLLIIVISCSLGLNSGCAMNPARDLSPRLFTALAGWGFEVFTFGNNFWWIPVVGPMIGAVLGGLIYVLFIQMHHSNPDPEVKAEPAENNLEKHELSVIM

[7] = target: T4, Aquaporin-3; test: Inhibition of AQP3 channel in human erythrocyte assessed as inhibition of glycerol permeability; format: cell-based
[8] = target: T6, Aquaporin-1 (Homo sapiens, UniProt P29972); test: Binding affinity to AQP1 (unknown origin) expressed in HEK cells assessed as dissociation constant; format: cell-based
T6 sequence (P29972 whole entry): T2 sequence (whole entry)

[9] = target: T4, Aquaporin-3; test: Inhibition of AQP3 (unknown origin)
[10] = target: T7, Aquaporin-9 (Homo sapiens) (UniProt O43315); test: Inhibition of AQP9 (unknown origin) expressed in xenopus laevis oocytes at 100 uM relative to control; format: cell-based; conditions: Oocyte
T7 sequence (whole entry): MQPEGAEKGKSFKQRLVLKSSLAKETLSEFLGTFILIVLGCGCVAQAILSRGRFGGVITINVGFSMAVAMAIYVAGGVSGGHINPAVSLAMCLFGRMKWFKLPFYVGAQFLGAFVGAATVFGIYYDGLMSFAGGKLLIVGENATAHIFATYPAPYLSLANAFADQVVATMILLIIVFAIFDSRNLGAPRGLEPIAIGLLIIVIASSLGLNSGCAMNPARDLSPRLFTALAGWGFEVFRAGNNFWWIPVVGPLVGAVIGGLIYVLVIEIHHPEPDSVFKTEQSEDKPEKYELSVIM

[11] = Permeability of compound; format: ADME; conditions: not told; read-out: permeability

T1 sequence (P55087 whole entry): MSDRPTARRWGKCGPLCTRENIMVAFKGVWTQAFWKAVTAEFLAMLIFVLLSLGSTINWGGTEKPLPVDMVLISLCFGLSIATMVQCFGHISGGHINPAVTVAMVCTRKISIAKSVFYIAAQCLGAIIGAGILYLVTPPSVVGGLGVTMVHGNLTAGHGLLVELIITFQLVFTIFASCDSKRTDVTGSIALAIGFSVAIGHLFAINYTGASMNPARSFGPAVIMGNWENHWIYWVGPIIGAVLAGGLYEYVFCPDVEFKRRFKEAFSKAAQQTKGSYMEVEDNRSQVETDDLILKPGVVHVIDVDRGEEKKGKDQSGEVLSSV

- inhibition [1]: 73%
- inhibition [2]: 56%
- IC50 [3]: 3 µM
Structure (SMILES): O=C(Nc1nncs1)c1cccnc1

- IC50 [4]: 0.7 µM
- IC50 [5]: 0.2 µM
- IC50 [6]: 1.1 µM
- IC50 [7]: ~0.6 µM
Structure (SMILES): CCOC(=O)c1ccc(NC(=O)NCc2ccc(-n3cccn3)cc2)cc1

- Kd [8]: 174 µM
Structure (SMILES): CC(=O)Nc1nnc(S(N)(=O)=O)s1 [ACETAZOLAMIDE]

- IC50 [5]: ~0.1 µM
- IC50 [7]: ~0.2 µM
Structure (SMILES): O=C(Nc1csc([N+](=O)[O-])c1)Nc1c(Cl)cccc1Cl

The remaining lines, values behind:

Structure (SMILES): Cc1ccc(CC2(OCCN(C)C)CCC(C(C)(C)C)CC2)cc1 (stereo not drawn)
- IC50 [9]: 27 µM

Structure (SMILES): O=C(CCc1ccc(O)cc1)c1c(O)cc(O)cc1O [PHLORETIN]
- inhibition [10]: 86%
- Papp [11]: ~2.8 ×10⁻⁶ cm/s
